Data as given in publication PMC5484537 (Bioorganic & medicinal chemistry, 2016).

Legend:
TAK1 [1] = biological target: T1, TAK1 (Homo sapiens, UniProt O43318); test: KINOMEscan binding to TAK1; settings: for binding to TAK1 in KINOMEscan: concentration of 1 μM
T1 sequence (O43318 1-606): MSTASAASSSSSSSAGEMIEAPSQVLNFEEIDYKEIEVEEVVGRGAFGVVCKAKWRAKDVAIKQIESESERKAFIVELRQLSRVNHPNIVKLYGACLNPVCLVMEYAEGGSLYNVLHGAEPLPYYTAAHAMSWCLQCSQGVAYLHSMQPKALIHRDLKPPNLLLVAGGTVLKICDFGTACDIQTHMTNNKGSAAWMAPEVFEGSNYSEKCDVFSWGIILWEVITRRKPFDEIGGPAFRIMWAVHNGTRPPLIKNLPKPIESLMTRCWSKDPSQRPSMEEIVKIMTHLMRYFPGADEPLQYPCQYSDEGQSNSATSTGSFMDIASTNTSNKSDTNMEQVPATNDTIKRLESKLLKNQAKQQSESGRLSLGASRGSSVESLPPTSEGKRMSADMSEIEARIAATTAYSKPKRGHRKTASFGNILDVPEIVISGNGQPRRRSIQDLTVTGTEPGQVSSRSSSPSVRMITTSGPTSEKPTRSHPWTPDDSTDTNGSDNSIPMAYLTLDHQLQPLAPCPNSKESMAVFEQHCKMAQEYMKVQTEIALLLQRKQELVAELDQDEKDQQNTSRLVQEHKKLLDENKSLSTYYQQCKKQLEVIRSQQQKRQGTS

[2] = tested on: panel of 468 kinases and mutants; test: KINOMEscan in vitro ATP-site competition binding assay, kinome selectivity; set-up: species or system human; settings: KINOMEscan at 1 μM; for selectivity score S(1): 468 kinases and mutants, kinases with scores less than 1
TAK1 [3] = biological target: T2, TAK1 (Homo sapiens, UniProt O43318); test: Time-dependent experiments, Kinact/Ki determination; assay type: binding
T2 sequence (O43318 1-303 limits assumed): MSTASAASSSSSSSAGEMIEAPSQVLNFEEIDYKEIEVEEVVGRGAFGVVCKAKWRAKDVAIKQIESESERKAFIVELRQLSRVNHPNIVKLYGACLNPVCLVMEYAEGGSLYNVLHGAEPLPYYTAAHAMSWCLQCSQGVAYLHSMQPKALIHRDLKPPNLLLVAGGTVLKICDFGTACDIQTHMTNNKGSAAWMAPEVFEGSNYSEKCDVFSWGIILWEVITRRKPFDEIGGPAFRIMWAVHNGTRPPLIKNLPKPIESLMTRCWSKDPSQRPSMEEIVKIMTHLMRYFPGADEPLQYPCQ

ERK2 = ERK2 (Homo sapiens, UniProt P28482); test: Z'-Lyte activity assay, ERK2; assay type: biochemical; settings: compound incubation time of 60 min
TAK1 [4] = biological target: T3, TAK1 (Homo sapiens, UniProt O43318); test: Mass spectrometry analysis of purified TAK1 incubated with compound; assay type: binding; settings: Fig S3
T3 sequence (O43318 with tags, fused parts or gaps): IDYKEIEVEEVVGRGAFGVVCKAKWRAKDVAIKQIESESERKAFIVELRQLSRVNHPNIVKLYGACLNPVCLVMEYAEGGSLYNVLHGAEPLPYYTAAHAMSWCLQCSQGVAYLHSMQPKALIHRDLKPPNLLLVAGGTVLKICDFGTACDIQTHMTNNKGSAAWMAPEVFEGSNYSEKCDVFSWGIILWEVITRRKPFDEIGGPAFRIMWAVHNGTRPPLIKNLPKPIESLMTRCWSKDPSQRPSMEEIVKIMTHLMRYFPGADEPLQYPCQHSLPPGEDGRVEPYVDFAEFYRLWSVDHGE

Chain of ERK2 (P28482 2-360): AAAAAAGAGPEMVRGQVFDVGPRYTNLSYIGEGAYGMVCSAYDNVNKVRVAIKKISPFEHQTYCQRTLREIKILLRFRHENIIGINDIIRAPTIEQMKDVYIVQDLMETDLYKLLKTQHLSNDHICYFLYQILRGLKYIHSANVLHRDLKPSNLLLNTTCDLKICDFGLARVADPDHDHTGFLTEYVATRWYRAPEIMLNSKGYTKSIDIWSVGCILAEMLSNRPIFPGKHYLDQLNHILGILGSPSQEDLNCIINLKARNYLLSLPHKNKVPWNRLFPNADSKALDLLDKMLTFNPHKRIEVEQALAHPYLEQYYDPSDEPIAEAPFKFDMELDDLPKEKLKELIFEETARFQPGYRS

Compound: COc1cc(O)c2c(c1)/C=C/C[C@H](O)[C@H](O)C(=O)/C=C\C[C@H](C)OC2=O [5Z7, 5Z-7-oxozeaenol, reference compound]
- inhibition score against TAK1 in KINOMEscan (TAK1 [1]; 10 μM): moderate inhibition score
- binding to TAK1 in KINOMEscan (TAK1 [1]): did not display strong binding

Compound: C=CC(=O)Nc1ccccc1Oc1nc(Nc2cnn(C(F)F)c2)ncc1Cl [compound 23]
- binding to TAK1 in KINOMEscan (TAK1 [1]): TAK1 was not ranked among the strongest hits
- selectivity score S(5) [2]: 0.1

Compound: C=CC(=O)Nc1ccccc1Oc1nc(Nc2cnn(CCOC)c2)ncc1Cl [compound 25]
- binding to TAK1 in KINOMEscan (TAK1 [1]): TAK1 was not ranked among the strongest hits
- selectivity score S(5) [2]: 0.03

Compound: C=CC(=O)Nc1ccccc1Nc1nc(Nc2ccc(N3CCN(C)CC3)cc2)ncc1Cl [compound 5, N-(2-((5-chloro-2-((4-(4-methylpiperazin-1-yl)phenyl)amino)pyrimidin-4-yl)amino)phenyl)acrylamide]
- binding to kinases with a cysteine at the DFG-1 position [2]: binds to TAK1 and ten other kinases with a cysteine at the DFG-1 position
- selectivity score S(1) [2]: 0.10
- kinact/KI (TAK1 [3]): 6870 M⁻¹ s⁻¹
- Enzymatic IC50s ERK2 (ERK2): weak activity

Compound: C=CC(=O)Nc1ccccc1Oc1nc(Nc2ccc(N3CCN(C)CC3)cc2)ncc1Cl [compound 2, N-(2-((5-chloro-2-((4-(4-methylpiperazin-1-yl)phenyl)amino)pyrimidin-4-yl)oxy)phenyl)acrylamide]
- labeling of TAK1 residue (TAK1 [4]): exclusive labeling of Cys174

Compound: CCC(=O)Nc1ccccc1Nc1nc(Nc2ccc(N3CCN(C)CC3)cc2)ncc1Cl [compound 9]
- binding to kinases with a cysteine at the DFG-1 position [2]: hits no kinases with a cysteine at the DFG-1 position
- selectivity score S(1) [2]: 0.10

Compound: C=CC(=O)Oc1ccccc1Nc1nc(Nc2ccc(N3CCN(C)CC3)cc2)ncc1Cl [compound 7, 2-((5-chloro-2-((4-(4-methylpiperazin-1-yl)phenyl)amino)pyrimidin-4-yl)amino)phenyl acrylate]
- selectivity score S(1) [2]: 0.19
